The results in this text go back to ChEMBL document CHEMBL4190187, “Discovery of pyrazolopyrimidine derivatives as novel inhibitors of ataxia telangiectasia and rad3 related protein (ATR)” (Bioorg Med Chem Lett, 2017).

Series [1] addresses Serine/threonine-protein kinase ATR (Homo sapiens, UniProt Q13535). Briefly: Inhibition of human recombinant FLAG-tagged full length ATR expressed in mammalian cell line co-expressing human recombinant cMyc-tagged full length ATRIP.
The nature of series [2]: Metabolic stability in human liver microsomes assessed as compound remaining at 1 uM in presence of NADPH as cofactor measured after 30 mins by LC-MS/MS method. The series is classed as ADME, microsome. Particulars: read-out: Stability.
Series [3] is described as follows: Metabolic stability in rat liver microsomes assessed as compound remaining at 1 uM in presence of NADPH as cofactor measured after 30 mins by LC-MS/MS method. The format is ADME, microsome. Particulars: read-out: Stability.
Series [4] can be described thus: Metabolic stability in mouse liver microsomes assessed as compound remaining at 1 uM in presence of NADPH as cofactor measured after 30 mins by LC-MS/MS method. Particulars: read-out: Stability. The series is classed as ADME, microsome.
For series [5], the target named is T1, Tyrosine-protein kinase BTK (Homo sapiens, UniProt Q06187). Briefly: Inhibition of BTK (unknown origin).
T1 sequence (Q06187 whole entry, canonical isoform): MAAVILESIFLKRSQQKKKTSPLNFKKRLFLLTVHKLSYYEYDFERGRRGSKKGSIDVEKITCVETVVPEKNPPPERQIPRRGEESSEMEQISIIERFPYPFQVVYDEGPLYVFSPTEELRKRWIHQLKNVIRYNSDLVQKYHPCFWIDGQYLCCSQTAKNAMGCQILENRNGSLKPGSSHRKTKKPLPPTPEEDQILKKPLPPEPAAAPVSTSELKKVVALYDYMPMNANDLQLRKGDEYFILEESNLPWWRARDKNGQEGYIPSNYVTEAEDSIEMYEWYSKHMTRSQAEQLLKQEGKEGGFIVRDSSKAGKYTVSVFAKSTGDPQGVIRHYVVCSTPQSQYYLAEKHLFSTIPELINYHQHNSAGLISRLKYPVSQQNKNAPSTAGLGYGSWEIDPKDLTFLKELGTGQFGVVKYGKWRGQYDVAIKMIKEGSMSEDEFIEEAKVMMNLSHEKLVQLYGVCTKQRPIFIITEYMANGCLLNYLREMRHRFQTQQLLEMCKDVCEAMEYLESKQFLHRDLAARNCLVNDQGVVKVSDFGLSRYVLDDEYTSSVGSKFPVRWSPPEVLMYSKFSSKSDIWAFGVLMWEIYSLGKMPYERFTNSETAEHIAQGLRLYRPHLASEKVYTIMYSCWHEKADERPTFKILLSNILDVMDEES
In series [6] the target is Phosphatidylinositol 4,5-bisphosphate 3-kinase catalytic subunit delta isoform (Homo sapiens, UniProt O00329). Nature of the series: Inhibition of PI3Kdelta (unknown origin).
Sequence of Phosphatidylinositol 4,5-bisphosphate 3-kinase catalytic subunit delta isoform (O00329 whole entry, canonical isoform): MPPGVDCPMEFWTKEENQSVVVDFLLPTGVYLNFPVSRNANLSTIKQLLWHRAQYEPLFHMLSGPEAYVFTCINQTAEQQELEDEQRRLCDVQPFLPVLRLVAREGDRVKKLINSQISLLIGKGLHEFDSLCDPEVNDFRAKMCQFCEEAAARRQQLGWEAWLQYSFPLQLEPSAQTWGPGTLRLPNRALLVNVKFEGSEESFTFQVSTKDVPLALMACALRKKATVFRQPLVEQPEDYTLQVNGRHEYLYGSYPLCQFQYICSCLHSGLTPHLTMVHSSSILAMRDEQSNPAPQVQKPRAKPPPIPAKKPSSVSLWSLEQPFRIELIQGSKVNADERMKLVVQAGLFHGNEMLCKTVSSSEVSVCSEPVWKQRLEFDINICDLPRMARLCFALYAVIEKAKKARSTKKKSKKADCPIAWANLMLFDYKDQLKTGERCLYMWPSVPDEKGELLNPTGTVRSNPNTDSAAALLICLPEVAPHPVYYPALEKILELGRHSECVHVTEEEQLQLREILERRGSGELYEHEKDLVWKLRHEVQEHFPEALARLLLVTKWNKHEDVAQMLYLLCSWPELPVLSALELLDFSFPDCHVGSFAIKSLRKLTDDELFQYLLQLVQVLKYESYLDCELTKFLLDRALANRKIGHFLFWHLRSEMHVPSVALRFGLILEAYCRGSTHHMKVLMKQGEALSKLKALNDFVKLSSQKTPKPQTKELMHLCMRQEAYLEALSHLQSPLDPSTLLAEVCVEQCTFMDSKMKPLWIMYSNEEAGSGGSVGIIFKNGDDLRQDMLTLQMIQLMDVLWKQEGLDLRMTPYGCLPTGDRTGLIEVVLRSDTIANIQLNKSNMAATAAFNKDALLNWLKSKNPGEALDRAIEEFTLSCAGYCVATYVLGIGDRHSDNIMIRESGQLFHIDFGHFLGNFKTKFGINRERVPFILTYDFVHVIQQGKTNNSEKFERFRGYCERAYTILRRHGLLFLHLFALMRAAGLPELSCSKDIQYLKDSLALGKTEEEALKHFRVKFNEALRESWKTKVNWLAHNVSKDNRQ
The target in series [7] is T1, Tyrosine-protein kinase BTK. Nature of the series: Inhibition of BTK (unknown origin) at 100 nM.
For series [8], the target named is Phosphatidylinositol 4,5-bisphosphate 3-kinase catalytic subunit delta isoform (Homo sapiens) (UniProt O00329). Briefly: Inhibition of PI3Kdelta (unknown origin) at 100 nM.
Sequence of Phosphatidylinositol 4,5-bisphosphate 3-kinase catalytic subunit delta isoform (Homo sapiens) (O00329 whole entry, canonical isoform): as above

Where “and” joins values, the source holds several entries; their conditions need not be identical. Equal entries are not always repeated.

Sequence of Serine/threonine-protein kinase ATR (Q13535 whole entry): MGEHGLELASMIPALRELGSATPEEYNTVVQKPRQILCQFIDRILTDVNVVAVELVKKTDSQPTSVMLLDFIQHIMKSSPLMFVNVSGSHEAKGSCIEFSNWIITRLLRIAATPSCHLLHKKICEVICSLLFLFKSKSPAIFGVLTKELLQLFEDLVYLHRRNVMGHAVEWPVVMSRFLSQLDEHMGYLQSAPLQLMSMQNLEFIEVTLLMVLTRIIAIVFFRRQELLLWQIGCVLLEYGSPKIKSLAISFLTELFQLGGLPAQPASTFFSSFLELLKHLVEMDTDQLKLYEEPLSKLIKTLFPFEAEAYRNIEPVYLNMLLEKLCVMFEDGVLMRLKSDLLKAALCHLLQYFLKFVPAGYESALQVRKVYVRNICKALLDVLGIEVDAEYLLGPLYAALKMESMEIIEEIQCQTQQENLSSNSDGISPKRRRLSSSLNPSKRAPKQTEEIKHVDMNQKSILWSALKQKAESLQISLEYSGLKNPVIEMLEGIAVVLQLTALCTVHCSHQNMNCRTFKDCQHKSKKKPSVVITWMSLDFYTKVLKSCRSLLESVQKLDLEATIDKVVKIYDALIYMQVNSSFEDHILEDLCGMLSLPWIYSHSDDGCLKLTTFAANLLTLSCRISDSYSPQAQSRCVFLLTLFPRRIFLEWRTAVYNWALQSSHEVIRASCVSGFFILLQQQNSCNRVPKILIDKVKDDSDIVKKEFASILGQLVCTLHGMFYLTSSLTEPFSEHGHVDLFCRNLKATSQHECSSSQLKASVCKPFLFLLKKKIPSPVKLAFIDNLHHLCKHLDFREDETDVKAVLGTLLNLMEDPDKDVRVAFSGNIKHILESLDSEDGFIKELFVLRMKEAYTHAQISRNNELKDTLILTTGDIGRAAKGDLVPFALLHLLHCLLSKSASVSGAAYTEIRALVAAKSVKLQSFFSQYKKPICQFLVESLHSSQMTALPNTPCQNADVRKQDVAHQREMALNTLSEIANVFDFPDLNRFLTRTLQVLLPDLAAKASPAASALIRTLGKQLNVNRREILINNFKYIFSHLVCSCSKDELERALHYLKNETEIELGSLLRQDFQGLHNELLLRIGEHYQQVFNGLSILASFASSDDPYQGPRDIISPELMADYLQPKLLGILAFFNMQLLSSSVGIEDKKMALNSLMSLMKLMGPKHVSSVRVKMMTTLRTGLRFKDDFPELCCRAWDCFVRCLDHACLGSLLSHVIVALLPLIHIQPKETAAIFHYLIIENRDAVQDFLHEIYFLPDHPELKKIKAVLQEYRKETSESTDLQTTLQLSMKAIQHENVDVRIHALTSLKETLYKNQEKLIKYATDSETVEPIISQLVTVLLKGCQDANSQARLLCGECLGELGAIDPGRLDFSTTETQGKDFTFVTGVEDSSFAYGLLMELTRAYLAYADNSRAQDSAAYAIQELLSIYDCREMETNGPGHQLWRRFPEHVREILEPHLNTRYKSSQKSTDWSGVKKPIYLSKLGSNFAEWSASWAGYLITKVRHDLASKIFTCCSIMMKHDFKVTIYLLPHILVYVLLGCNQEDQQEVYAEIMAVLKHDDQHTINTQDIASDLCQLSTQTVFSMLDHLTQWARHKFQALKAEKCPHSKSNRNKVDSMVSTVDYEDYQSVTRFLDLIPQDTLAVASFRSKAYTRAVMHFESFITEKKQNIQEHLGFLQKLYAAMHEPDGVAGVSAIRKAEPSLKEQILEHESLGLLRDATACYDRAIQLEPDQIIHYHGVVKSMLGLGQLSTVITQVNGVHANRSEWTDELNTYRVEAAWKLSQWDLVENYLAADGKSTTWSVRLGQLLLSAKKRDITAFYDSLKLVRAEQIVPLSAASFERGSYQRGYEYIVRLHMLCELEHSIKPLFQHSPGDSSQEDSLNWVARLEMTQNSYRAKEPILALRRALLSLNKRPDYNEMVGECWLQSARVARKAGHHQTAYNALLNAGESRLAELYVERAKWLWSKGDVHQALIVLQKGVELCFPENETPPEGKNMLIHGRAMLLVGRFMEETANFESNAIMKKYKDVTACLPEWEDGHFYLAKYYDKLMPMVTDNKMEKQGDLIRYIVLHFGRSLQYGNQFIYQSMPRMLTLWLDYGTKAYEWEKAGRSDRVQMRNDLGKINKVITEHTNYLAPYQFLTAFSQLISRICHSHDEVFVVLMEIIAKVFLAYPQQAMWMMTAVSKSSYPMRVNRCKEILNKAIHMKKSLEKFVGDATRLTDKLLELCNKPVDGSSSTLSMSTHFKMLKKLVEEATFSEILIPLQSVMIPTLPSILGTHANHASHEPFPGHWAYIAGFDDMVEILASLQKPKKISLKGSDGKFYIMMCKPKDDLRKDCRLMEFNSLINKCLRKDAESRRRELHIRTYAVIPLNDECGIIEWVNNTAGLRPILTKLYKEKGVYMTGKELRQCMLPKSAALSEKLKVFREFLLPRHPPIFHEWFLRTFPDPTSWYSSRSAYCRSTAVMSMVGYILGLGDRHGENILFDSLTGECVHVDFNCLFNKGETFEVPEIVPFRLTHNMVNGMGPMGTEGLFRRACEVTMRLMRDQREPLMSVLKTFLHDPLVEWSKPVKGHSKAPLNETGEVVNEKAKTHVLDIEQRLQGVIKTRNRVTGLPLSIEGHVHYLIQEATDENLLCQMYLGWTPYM

As to `c1ccc2c(c1)CCC(n1nc(-c3cnc4[nH]ccc4c3)c3cncnc31)C2` (racemic), the IC50 in series [1] is greater than 30000 nM.
Take `Nc1ncnc2c1c(-c1ccc(Br)c(O)c1)nn2C1Cc2ccccc2C1`: in series [1], the IC50 was determined as 3560 nM.
As for `CS(=O)(=O)N1CCC(n2nc(-c3cnc4[nH]ccc4c3)c3c(N)ncnc32)CC1`, the IC50 in series [1] was found to be 1320 nM.
On the same count and under the same terms, the figure for `Nc1ncnc2c1c(-c1ccc(Br)c(O)c1)nn2C1CCc2ccccc21` (configuration not stated) is 1860 nM; for `Nc1ncnc2c1c(-c1ccc3[nH]ccc3c1)nn2C1CCc2ccccc2C1` (racemic) it is 1590 nM.
The same measure, in the same setting: the figure for `Nc1ncnc2c1c(-c1cnc3[nH]ccc3c1)nn2C1Cc2ccccc2C1` is 654 nM.
For `CNCc1ccc(-c2cc(-c3nc(-c4ccc(S(=O)(=O)C(C)C)cc4)cnc3N)on2)cc1` [BERZOSERTIB], the remaining at 0.5 h, 1 µM is 71% in series [2], 80% in series [3] and 77% in series [4].
For the compound `Nc1ncnc2c1c(-c1cnc3cc[nH]c3c1)nn2C1CCc2ccccc2C1` (racemic), the IC50 in series [1] is 4620 nM.
The same measure, in the same setting: the figure for `Nc1ncnc2c1c(-c1c[nH]c3ncccc13)nn2C1CCc2ccccc2C1` (racemic) is greater than 30000 nM.
Still for that read-out and setting: the figure for `Nc1nc2c(s1)CC(n1nc(-c3cnc4[nH]ccc4c3)c3c(N)ncnc31)CC2` (configuration not stated) is 547 nM and 269 nM; for `Cn1ccc2cc(-c3nn(C4CCc5ccccc5C4)c4ncnc(N)c34)cnc21` (racemic) it is 580 nM.
Still for that read-out and setting: the figure for `Nc1ccnc2c1c(-c1cnc3[nH]ccc3c1)nn2C1CCc2ccccc2C1` (racemic) is greater than 30000 nM; for `Nc1ncnc2c1c(-c1ccc(N3CCCC3)nc1)nn2C1CCc2ccccc2C1` (racemic) it is 19100 nM; for `Nc1ncnc2c1c(-c1cnc3[nH]ccc3c1)nn2C1CCc2ccccc2C1` (stereo in doubt; 1) it is 304 nM.
As for `Nc1ncnc2c1c(-c1cccnc1)nn2C1CCc2ccccc2C1` (racemic), the IC50 in series [1] is greater than 30000 nM.
On to `Nc1nc2c(s1)CC(n1nc(-c3cc(F)c4[nH]ccc4c3)c3c(N)ncnc31)CC2` (configuration not stated), for which the concentration for half-maximal inhibition (IC50) in series [1] amounted to 2630 nM; in series [5], 22 nM; in series [6] it was 307 nM.
Take `Nc1ncnc2c1c(-c1cnc3[nH]c(=O)ccc3c1)nn2C1CCc2ccccc2C1` (racemic): the IC50 in series [1] was 22400 nM.
In the case of `Nc1ncnc2c1c(-c1cnc3[nH]ccc3c1)nn2C1CCc2ccccc2C1` (racemic) [listing 1 of 2 here], in series [1], the IC50 worked out at 212 nM.
`Nc1ncnc2c1c(-c1cnc3[nH]ccc3c1)nn2C1CCc2ccccc2C1` (racemic) [listing 2 of 2 here]: the inhibition was determined as 24% in series [7] and 52% in series [8].
Regarding `Nc1ncnc2c1c(-c1cnc3[nH]ccc3c1)nn2C1CCc2ccccc2C1` (stereo in doubt; 1'), in series [1], the half-inhibitory concentration (IC50) was 158 nM.
The same measure, in the same setting: the figure for `Nc1ncnc2c1c(-c1cnc3[nH]ccc3c1)nn2C1CCCC1` is 1420 nM.
On the same count and under the same terms, the figure for `Nc1ccc(-c2nn(C3CCc4ccccc4C3)c3ncnc(N)c23)cn1` (racemic) is 19300 nM.
